Results on nine compounds are retold here after paper PMC4009402, “Evaluation of a biohybrid photoelectrochemical cell employing the purple bacterial reaction centre as a biosensor for herbicides” (Biosensors & Bioelectronics, 2014).

The subject of experiment [1] is Blc. viridis reaction centre. Further details: method as in Sinning et al., 1989. The following applies: ref Sinning et al., 1989; cited from earlier work.
For experiment [2], the target named is T1, Rba. sphaeroides reaction centre (QB site) (Cereibacter sphaeroides, UniProt P0C0Y8).
T1 construct: made in house; host or cells: Rba. sphaeroides strain DD13 carrying plasmid pvLMt (written pvLMtX)
In words: Kinetics of charge recombination in photo-oxidised reaction centres in solution (absorbance at 865 nm). The following applies: for effect on recombination rate (in words): 500 µM agent; for τ1 / τ2 / A1 / A2: 500 µM inhibitor; for τ1 / τ2: 13.2 µM reaction centres, 30 µM UQ0, ± standard error; for A1: amplitude of τ1 component; for A2: amplitude of τ2 component. Format: biochemical, Rhodobacter sphaeroides. On the procedure: Analysis of the effects of herbicides or inhibitors on the kinetics of charge recombination was performed using a Cary60 spectrophotometer connected to an external 1 cm cuvette holder (Ocean Optics) via a fibre-optic coupler. A white light pulse of 50 ms duration was applied to the sample cuvette at 90° to the pulsed measuring beam by an HL-2000-FHSA white light source with a fast shutter (Ocean Optics) delivering approximately 25 W m^−2 illumination at the cuvette surface. The actinic pulse was triggered by a TGP110 pulse generator (Thurlby Thandur Instruments). […] Test samples were loaded into to a 3×3 mm fluorescence cuvette (Hellma) aligned to the measuring and excitation pulses and absorbance at 865 nm was measured for 20 s after delivery of the light pulse, with a further period of at least 60 s to allow full dark adaptation of the reaction centres before re-excitation. A set of eight kinetic traces were recorded for each sample, averaged, and fitted using a single or double exponential function in Origin 8 (OriginLab).
To ensure this pattern of results was not specific to the conditions within the photoelectrochemical cell, the ability of these inhibitors to replace ubiquinone at the QB site was also tested by measuring the rate of recombination from QA and QB to the primary donor bacteriochlorophyll (P) after excitation with a pulse of white light (see Section 2). As outlined in Section 1, recombination of P^+QA^− or P^+QB^− occurs with lifetimes of ~100 ms and ~1 s, respectively. As the QB quinone is partially lost during purification of reaction centres, assays were conducted in the presence of 30 µM UQ0 to reconstitute QB, the reaction centre concentration being 13.2 µM.

In experiment [3] the test system is Blc. viridis reaction centres (tyrosine to phenylalanine mutant near QB pocket). Further details: method as in Sinning et al., 1989. The note with it: ref Sinning et al., 1989, cited from earlier work.
In experiment [4] the target is QB site in the Rba. sphaeroides reaction centre. Further details: method as in Stein et al., 1984. The note with it: 1 μM reaction centres, 10 mM Tris (pH 8.0), 100 mM NaCl, 0.06% TX-100, 20 μM UQ10; ref Stein et al., 1984; cited from earlier work.
The target of experiment [5] is T2, Rba. sphaeroides reaction centre quinone reductase (QB) site (Cereibacter sphaeroides, UniProt P0C0Y8).
T2 construct: made in house; host or cells: Rba. sphaeroides strain DD13 carrying plasmid pvLMt (written pvLMtX)
In words: Determination of the Km(apparent) for UQ0 from photocurrent density. Format: biochemical, Rhodobacter sphaeroides. The note with it: detergent-free buffer, Michaelis–Menten fit. As to the method: Photovoltaic cells were assembled as described above but with the omission of UQ0. Photocurrents of 30 s duration were measured in the absence of UQ0 and after the addition of increasing amounts of UQ0. Maximal currents from three titrations were averaged, plotted as a function of UQ0 concentration then fitted with the Michaelis–Menten equation using Origin 8.0 (OriginLab).
To optimise the concentration of the substrate for the reaction centre quinone reductase (QB) site in the cell the Km^(apparent) for UQ0 was determined by measuring the maximum photocurrent density during a 30 s period of illumination as a function of increasing concentrations of UQ0. A concentration-dependent increase in the photocurrent amplitude was obtained, which was fitted with the Michaelis–Menten equation (Supplementary Fig. 3). […] This Km^(apparent) for UQ0 is, to our knowledge, the strongest reported to date. […] As the present assay was conducted in detergent-free buffer, the stronger Km^(apparent) obtained is consistent with this trend.

The next experiment addresses reaction centre QB site. Set-up: method as in earlier work. The following applies: ref McComb et al., 1990, Paddock et al., 1988, Gerencsér and Maróti, 2008, cited from earlier work.
Experiment [6] concerns the target T1, Rba. sphaeroides reaction centre (QB site). The experiment can be described thus: Inhibition of photocurrent generation in photoelectrochemical cell with reaction centres adhered to a gold electrode. In kind it is biochemical, Rhodobacter sphaeroides. The note with it: for LOD (IC5): calculated from IC50 and Hill coefficient, 5% change in current; for inhibition of the QB site / photocurrent (in words): present study, detergent-free buffer. On the procedure:
To adhere reaction centres the cleaned gold electrode was immersed in 25 µL of a 1 mg mL^−1 (approximately 10 µM) solution of purified reaction centres in 20 mM Tris (pH 8.0)/0.1% LDAO for 1 h at 4 °C in dark. Unbound reaction centres were removed by dipping the electrode in ice-cold 20 mM Tris (pH 8.0) three times. The coated gold electrode was assembled into a glass-bottomed cell along with a Pt counter electrode (Radiometer Analytical), and an Ag/AgCl reference electrode (Radiometer Analytical). The cell was filled with 1 ml of 20 mM Tris (pH 8.0) containing 20 µM horse heart cyt c and 30 µM UQ0 (both from Sigma-Aldrich) and placed above a shutter-controlled 1.5 W 880 nm LED light source (Roithner LaserTechnik), resulting in an illumination intensity of 46 mW cm^−2 at the working electrode. A potential of −100 mV vs SCE was applied and photocurrents measured by chronoamperometry using the Autolab PGSTAT128N potentiostat (Metrohm) controlled by the PC running Autolab Nova 1.4 software (Metrohm).
The cell was incubated for 1 min before measurement of a 30 s photocurrent. All herbicides and inhibitors were purchased from Sigma-Aldrich, and their structures are shown in Supplementary Fig. 2.
For titrations, the photocurrent from a freshly prepared cell was measured for 30 s before and after the addition of increasing concentrations of atrazine, terbutryn or stigmatellin prepared in 20 mM Tris (pH 8.0)/20 µM cyt c/30 µM UQ0. After each addition the cell was equilibrated for 60 s before measuring the photocurrent, which was sufficient to allow stabilisation of the applied current required to maintain a potential of −100 mV vs SCE. Maximal photocurrents were plotted as a function of inhibitor concentration and fitted with a logistic function to determine the IC50 and IC5 (see text). These IC50 values were used to estimate Ki using the Cheng–Prusoff equation (see text).
To quantify the sensitivity of photocurrent generation to atrazine, terbutryn and stigmatellin the maximal photocurrent after a standard period of 30 s was recorded as a function of herbicide or inhibitor concentration. The titration data, expressed as the percentage of the maximum current in the absence of the herbicide/inhibitor, were fitted to a logistic function (Eq. (1)) to determine the IC50.(1) Y=Min+Max−Min/1+([Inhibitor]/IC50)^−HillCoefficient where Max and Min are maximal and minimal photocurrents, respectively. […] Based on this, the LOD can be represented by an IC5 value that can be calculated from the parameters of the IC50 fit (Eq. (2)).
To compare the sensitivity of our photochemical cell device to previous studies employing Rba. sphaeroides reaction centres, the IC50 values were converted to values for the binding affinity of the inhibitor (Ki) using the Cheng–Prusoff equation (Eq. (3)) ([Cheng and Prusoff, 1973])(3) Ki=IC50/1+([S]/Km) where [S] is the substrate concentration and Km is the measured Michaelis constant for UQ0 (see above).

For a further experiment, the system named is spinach thylakoids. Set-up: method as in Touloupakis et al., 2005. The following applies: albumin glutaraldehyde matrix; ref Touloupakis et al., 2005; cited from earlier work.
In a further experiment the test system is PSII. The note with it: cited from earlier work.
Setting [7] is: PSII complexes in glutaraldehyde–BSA matrix on graphite electrode, ref Koblížek et al., 2002.
Setting [8] is: PSII reaction centres or BBY particles on screen printed gold electrodes, ref Bhalla and Zazubovich, 2011.
Where [9] appears, read: mutant vs normal reaction centre.

As usually defined, the Kd is the constant that tells how readily two partners part at equilibrium. The term Km denotes the substrate concentration at which the rate is half of its maximum. As a reminder, the IC50 is the concentration that gives 50% inhibition. As usually defined, the Ki is the equilibrium dissociation constant of an inhibitor or competing ligand from its target. Low values mean higher affinity, high ones lower affinity.

Several values for one entry are separate records, joined by “and”; a condition that tells them apart may be missing. Identical values can stand only once. Like-named read-outs stand apart in the source and are kept apart here.

As to `CN(C)C(=O)Nc1ccc(Cl)c(Cl)c1` [DCMU, 3-(3,4-dichlorophenyl)-1,1-dimethylurea], the “inhibitor grouping (in words)” value in experiment [1] is on record as “very weak inhibitors”. In experiment [2], the “effect on recombination rate (in words)” value was “unaffected”, the τ1 was found to be 0.179 ± 0.012 s, the τ2 is recorded as 1.18 ± 0.04 s and the A1 is 51.7 ± 3.7%. For the same compound, the A2 in [2] came out at 48.3 ± 3.7%. Besides, in experiment [3] (single tyrosine to phenylalanine change), the “increase in affinity in mutant” value was “at least four orders of magnitude”. In addition, the Kd in experiment [4] is over 800000 nM.

As to `COC1=C(OC)C(=O)C(C)=CC1=O` [UQ0, ubiquinone-0], in experiment [5], the Km came out at 42 ± 2 µM. Moreover, the Kd at reaction centre QB site (0.0025% LDAO) is 175000 nM and 90000 nM; at reaction centre QB site (0.06% LDAO), 480000 nM; on reaction centre QB site (0.1% LDAO) it was 600000 nM.

With `CCNc1nc(Cl)nc(NC(C)C)n1` [atrazine, N^2-ethyl-6-chloro-N^4-isopropyl-1,3,5-triazine-2,4-diamine], in experiment [6], the IC50 worked out at 2100 ± 100 nM, the affinity corresponds to a Ki of 1200 nM, the “LOD (IC5)” value was about 50 nM and the “inhibition of the QB site / photocurrent (in words)” value was “strong inhibition”. The photocurrent remaining entry in [6] (100 µM agent) was “less than 10%”. Moreover, in [6] (listed as Atrazine), the “LOD (IC5)” value is given as 49 nM. Further, in the experiment on spinach thylakoids, the IC50 was 100 nM and the LOD is 12.7 nM. Besides, in [2], the “effect on recombination rate (in words)” value is “accelerated significantly”, the τ1 is 0.212 ± 0.004 s and the A1 is on record as 100%. In addition, in the experiment with PSII (setting [7]), the IC50 is 90 nM and the LOD is 2 nM. Further, the IC50 in the experiment with PSII (PSII on screen printed Pt electrode in glutaraldehyde–BSA–glycerol matrix, ref Masojídek et al., 2011) was 890 nM. In the experiment with PSII (setting [8]), the IC50 is 49 nM and the LOD is recorded as 1.15 nM. Also, the Kd in experiment [4] was 120000 nM.

For `CC(C)N1C(=O)c2ccccc2NS1(=O)=O` [bentazon], in [6] (500 µM agent), the photocurrent remaining entry was “greater than 80%”. In addition, the “inhibition of the QB site / photocurrent (in words)” value in experiment [6] is on record as “weak inhibition”. In addition, in experiment [2], the “effect on recombination rate (in words)” value is “unaffected”, the τ1 is 0.129 ± 0.015 s, the τ2 came out at 1.09 ± 0.03 s and the A1 was 39.0 ± 5.8%. Moreover, in experiment [2], the A2 is 61.0 ± 3.0%.

Turning to `N#Cc1cc(Br)c(O)c(Br)c1` [bromoxynil], the photocurrent remaining entry in experiment [6] (500 µM agent) is “greater than 80%”. In addition, the “inhibition of the QB site / photocurrent (in words)” value in experiment [6] is recorded as “ineffective”. In [2], the “effect on recombination rate (in words)” value is “unaffected”, the τ1 was 0.038 ± 0.009 s, the τ2 was determined as 1.14 ± 0.04 s and the A1 amounted to 36.1 ± 12.4%. Also, the A2 in experiment [2] worked out at 63.9 ± 2.2%. Further, the Kd in experiment [4] is 30000 nM.

Consider `COc1cc(CNC(=O)CCCC/C=C/C(C)C)ccc1O` [capsaicin], for which the photocurrent remaining result in [6] (500 µM agent) was “greater than 80%”. Besides, in experiment [2], the “effect on recombination rate (in words)” value is on record as “unaffected”, the τ1 came out at 0.152 ± 0.011 s, the τ2 was determined as 1.19 ± 0.03 s and the A1 stood at 41.0 ± 3.8%. In addition, in experiment [2], the A2 worked out at 59.0 ± 2.2%.

Turning to `N#Cc1cc(I)c(O)c(I)c1` [ioxynil], the “inhibitor grouping (in words)” value in experiment [1] is “very weak inhibitors”. Besides, in experiment [3] (setting [9]), the “increase in sensitivity to inhibitor in mutant” value is 100 fold.

For `C/C=C(C)/C=C/C=C/[C@H](OC)[C@@H](C)[C@@H](OC)[C@@H](C)CCc1oc2c(O)c(OC)cc(OC)c2c(=O)c1C` [stigmatellin], in experiment [6], the IC50 was 280 ± 60 nM, the affinity corresponds to a Ki of 165 nM, the “LOD (IC5)” value is 8.3 nM and the “inhibition of the QB site / photocurrent (in words)” value was “strong inhibition”. Also, the photocurrent remaining entry in experiment [6] (100 µM agent) is on record as “less than 10%”. Besides, in [6] (listed as Stigmatellin), the “LOD (IC5)” value is 10 nM. Also, in experiment [2], the “effect on recombination rate (in words)” value was “accelerated significantly”, the τ1 amounted to 0.095 ± 0.003 s and the A1 is given as 100%.

Turning to `CCNc1nc(NC(C)(C)C)nc(SC)n1` [terbutryn], in [6], the IC50 stood at 208 ± 10 nM, the affinity corresponds to a Ki of 123 nM, the “LOD (IC5)” value is reported as 8.3 nM and the “inhibition of the QB site / photocurrent (in words)” value is given as “strong inhibition”. In addition, the photocurrent remaining entry in experiment [6] (100 µM agent) is “less than 10%”. Besides, in experiment [2], the “effect on recombination rate (in words)” value is on record as “accelerated significantly”, the τ1 was determined as 0.152 ± 0.004 s and the A1 amounted to 100%. Moreover, the “decrease in sensitivity to inhibitor in mutant” value in [3] (setting [9]) is on record as 660 fold. Besides, the dissociation constant (Kd) in experiment [4] is 3000 nM.
